Assay results: PubChem BioAssay (NCI)
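Test compounds were applied to cells in 96-well plates for 48 hours at 5 doses. At the GI50, growth is halved. The concentration for full growth arrest is given as TGI.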

Columns and labels:
Assay in all cases: NCI-60 cell line screen, 48 h
IGROV1 ovarian = system: IGROV1 ovarian
HT29 colon = system: HT29 colon
SNB-75 CNS = system: SNB-75 CNS
ACHN renal = system: ACHN renal
HCT-15 colon = system: HCT-15 colon
786-0 renal = system: 786-0 renal
RXF 393 renal = system: RXF 393 renal
SF-539 CNS = system: SF-539 CNS
OVCAR-4 ovarian = system: OVCAR-4 ovarian
BT-549 breast = system: BT-549 breast
SK-MEL-28 melanoma = system: SK-MEL-28 melanoma
OVCAR-5 ovarian = system: OVCAR-5 ovarian
MDA-MB-435 = system: MDA-MB-435
SK-MEL-5 melanoma = system: SK-MEL-5 melanoma
LOX IMVI melanoma = system: LOX IMVI melanoma
OVCAR-3 ovarian = system: OVCAR-3 ovarian
SF-268 CNS = system: SF-268 CNS
HCT-116 colon = system: HCT-116 colon
KM12 colon = system: KM12 colon
OVCAR-8 ovarian = system: OVCAR-8 ovarian
T-47D breast = system: T-47D breast
RPMI-8226 leukemia = system: RPMI-8226 leukemia
U251 CNS = system: U251 CNS
UACC-62 melanoma = system: UACC-62 melanoma
CAKI-1 renal = system: CAKI-1 renal
SF-295 CNS = system: SF-295 CNS
UO-31 renal = system: UO-31 renal
A498 renal = system: A498 renal
SN12C renal = system: SN12C renal
HS 578T breast = system: HS 578T breast
MDA-MB-231 breast = system: MDA-MB-231 breast
NCI-H226 lung = system: NCI-H226 lung
DU-145 prostate = system: DU-145 prostate
UACC-257 melanoma = system: UACC-257 melanoma
HL-60(TB) leukemia = system: HL-60(TB) leukemia
EKVX NSCLC = system: EKVX NSCLC
HCC-2998 colon = system: HCC-2998 colon
SNB-19 CNS = system: SNB-19 CNS
NCI-H460 lung = system: NCI-H460 lung
SR leukemia = system: SR leukemia
HOP-62 NSCLC = system: HOP-62 NSCLC
SK-OV-3 ovarian = system: SK-OV-3 ovarian
SW-620 colon = system: SW-620 colon
MOLT-4 leukemia = system: MOLT-4 leukemia
NCI/ADR-RES ovarian = system: NCI/ADR-RES ovarian
M14 melanoma = system: M14 melanoma
K-562 leukemia = system: K-562 leukemia
MCF7 breast = system: MCF7 breast
SK-MEL-2 melanoma = system: SK-MEL-2 melanoma
NCI-H23 lung = system: NCI-H23 lung
TK-10 renal = system: TK-10 renal
CCRF-CEM leukemia = system: CCRF-CEM leukemia
A549 NSCLC = system: A549 NSCLC
HOP-92 NSCLC = system: HOP-92 NSCLC
PC-3 prostate = system: PC-3 prostate
MALME-3M melanoma = system: MALME-3M melanoma
NCI-H522 lung = system: NCI-H522 lung
COLO 205 colon = system: COLO 205 colon

CCc1ccc(/C=C2/SC(=S)NC2=O)cc1
GI50 (IGROV1 ovarian): 37.5 µM | TGI (IGROV1 ovarian): > 100 µM | GI50 (HT29 colon): 27.9 µM | TGI (HT29 colon): > 80 µM | GI50 (SNB-75 CNS): 21.7 µM | TGI (SNB-75 CNS): > 100 µM | GI50 (ACHN renal): 27.2 µM | TGI (ACHN renal): > 100 µM | GI50 (HCT-15 colon): 16.9 µM | TGI (HCT-15 colon): 39.8 µM | GI50 (786-0 renal): 22.6 µM | TGI (786-0 renal): 81.3 µM | GI50 (RXF 393 renal): 18.9 µM | TGI (RXF 393 renal): 55.7 µM | GI50 (SF-539 CNS): 21 µM | TGI (SF-539 CNS): 56.6 µM | GI50 (OVCAR-4 ovarian): 20 µM | TGI (OVCAR-4 ovarian): > 93.3 µM | GI50 (BT-549 breast): 20.9 µM | TGI (BT-549 breast): 58.2 µM | GI50 (SK-MEL-28 melanoma): 22.9 µM | TGI (SK-MEL-28 melanoma): 79.7 µM | GI50 (OVCAR-5 ovarian): 24.1 µM | TGI (OVCAR-5 ovarian): 90.6 µM | GI50 (MDA-MB-435): 27.5 µM | TGI (MDA-MB-435): > 100 µM | GI50 (SK-MEL-5 melanoma): 14.9 µM | TGI (SK-MEL-5 melanoma): 37.6 µM | GI50 (LOX IMVI melanoma): 22.4 µM | TGI (LOX IMVI melanoma): > 71.5 µM | GI50 (OVCAR-3 ovarian): 16.9 µM | TGI (OVCAR-3 ovarian): 35.3 µM | GI50 (SF-268 CNS): 24.5 µM | TGI (SF-268 CNS): > 100 µM | GI50 (HCT-116 colon): 21 µM | TGI (HCT-116 colon): 59.5 µM | GI50 (KM12 colon): 25.1 µM | TGI (KM12 colon): > 77.3 µM | GI50 (OVCAR-8 ovarian): 25.9 µM | TGI (OVCAR-8 ovarian): > 88.8 µM | GI50 (T-47D breast): 23.5 µM | TGI (T-47D breast): 89.2 µM | GI50 (RPMI-8226 leukemia): 16.5 µM | TGI (RPMI-8226 leukemia): > 76 µM | GI50 (U251 CNS): 18.7 µM | TGI (U251 CNS): 62.6 µM | GI50 (UACC-62 melanoma): 12.3 µM | TGI (UACC-62 melanoma): 28.9 µM | GI50 (CAKI-1 renal): 24 µM | TGI (CAKI-1 renal): > 81.5 µM | GI50 (SF-295 CNS): 18.2 µM | TGI (SF-295 CNS): 56.8 µM | GI50 (UO-31 renal): 13.2 µM | TGI (UO-31 renal): 33.1 µM | GI50 (A498 renal): 6.15 µM | TGI (A498 renal): 36.4 µM | GI50 (SN12C renal): 20.3 µM | TGI (SN12C renal): 81.4 µM | GI50 (HS 578T breast): 16.3 µM | TGI (HS 578T breast): 70.6 µM | GI50 (MDA-MB-231 breast): 18.9 µM | TGI (MDA-MB-231 breast): 46.7 µM | GI50 (NCI-H226 lung): 20.3 µM | TGI (NCI-H226 lung): 71.3 µM | GI50 (DU-145 prostate): 38.6 µM | TGI (DU-145 prostate): > 100 µM | GI50 (UACC-257 melanoma): 17.7 µM | TGI (UACC-257 melanoma): 61.3 µM | GI50 (HL-60(TB) leukemia): 21.6 µM | TGI (HL-60(TB) leukemia): 57 µM | GI50 (EKVX NSCLC): 21.9 µM | TGI (EKVX NSCLC): 73.2 µM | GI50 (HCC-2998 colon): 18.8 µM | TGI (HCC-2998 colon): 45.7 µM | GI50 (SNB-19 CNS): 20.3 µM | TGI (SNB-19 CNS): > 90.3 µM | GI50 (NCI-H460 lung): 20.7 µM | TGI (NCI-H460 lung): 54.8 µM | GI50 (SR leukemia): 19.4 µM | TGI (SR leukemia): > 84.9 µM | GI50 (HOP-62 NSCLC): 25.7 µM | TGI (HOP-62 NSCLC): 78.2 µM | GI50 (SK-OV-3 ovarian): 24.6 µM | TGI (SK-OV-3 ovarian): 74.9 µM | GI50 (SW-620 colon): 27.2 µM | TGI (SW-620 colon): > 100 µM | GI50 (MOLT-4 leukemia): 23.5 µM | TGI (MOLT-4 leukemia): 84.3 µM | GI50 (NCI/ADR-RES ovarian): 25.3 µM | TGI (NCI/ADR-RES ovarian): 89.4 µM | GI50 (M14 melanoma): 24.3 µM | TGI (M14 melanoma): 82.8 µM | GI50 (K-562 leukemia): 29.3 µM | TGI (K-562 leukemia): > 100 µM | GI50 (MCF7 breast): 21.2 µM | TGI (MCF7 breast): > 85.5 µM | GI50 (SK-MEL-2 melanoma): 16.4 µM | TGI (SK-MEL-2 melanoma): 41.3 µM | GI50 (NCI-H23 lung): 18.6 µM | TGI (NCI-H23 lung): 47 µM | GI50 (TK-10 renal): 23.4 µM | TGI (TK-10 renal): > 85.4 µM | GI50 (CCRF-CEM leukemia): 22.6 µM | TGI (CCRF-CEM leukemia): > 80.4 µM | GI50 (A549 NSCLC): 20.8 µM | TGI (A549 NSCLC): > 80.2 µM | GI50 (HOP-92 NSCLC): 3.41 µM | TGI (HOP-92 NSCLC): 26.4 µM | GI50 (PC-3 prostate): 23.3 µM | TGI (PC-3 prostate): > 100 µM | GI50 (MALME-3M melanoma): 23.2 µM | TGI (MALME-3M melanoma): > 80.6 µM | GI50 (NCI-H522 lung): 15 µM | TGI (NCI-H522 lung): 43.8 µM | GI50 (COLO 205 colon): 18.3 µM | TGI (COLO 205 colon): 33.7 µM
